# Patent publication US9127038B2, “Kisspeptide-pentasaccharide conjugates” (Merck Sharp & Dohme Corp., priority 2011, dated 2015)
# Where two headings read alike, the source gives them in different places.
# Columns and labels:
# [1] = In vitro stability in human serum (LC/MS/MS); details: human
# Method: Test compound is added to 1.5 mL human serum in a 96-wells deepwell plate in a final concentration of 750 nM. The compound is mixed and immediately thereafter a 100 μl sample is harvested in a 96-wells 2D-tuberack (T=0 sample). The 2 D-tubes are closed with rubber tube caps and the sample plate is stored at −20° CF. in the freezer. The deepwell plate is put into an incubator which was set at humidified (95%) atmosphere at 5-7% CO2 and 37° C. for an incubation period of maximum 240 h. During this incubation period, samples of 100 μl are collected on various time intervals, dependent on the test compound used; time points 0, 1, 2, 3, 6, 24, 48, 72 h in case of Kisspeptides and 0, 3, 6, 24, 48, 72, 168, 240 h in case of kisspeptide-pentasaccharide conjugates. Sample plates are put on ice in case of sampling and stored at −20° C. until analysis by LC/MS/MS.
# For LC-MS/MS analysis, the compounds are separated over an XTerra RP8 column and using a gradient mobile phase of ammonium acetate buffer and acetonitrile at a fixed column temperature. MS/MS detection is done with a triple quadrupole mass spectrometer and employing negative ion electrospray ionization. The mass spectrometer is set up to achieve a known degree of in source fragmentation, where the initially formed multiply charged negative ions lose one or more SO3 molecules. The most abundant of these secondary ions are then subjected to a common MS/MS experiment in which a single SO3 loss is monitored. The Q1 and Q3 mass filter settings for this MS/MS experiment have commonly been determined in method development. […] Internal standardization is accomplished by adding a different conjugate of approximately the same size to the bioanalytical samples.
# The rate of compound loss is expressed as a half-life (plasma t^1/2). The t^1/2 for the test compound can be determined by plotting the natural logarithm (In) of the measured concentrations against time and fitting the line through all data points. The gradient of this line is the first order rate constant (k) for substrate disappearance and is determined by regression analysis. The rate constant is converted to a half-life according to the following equation: In vitro half-life(t^1/2)=−ln 2/k
# human KISS-receptor = biological target: T1, human KISS-receptor (Homo sapiens, UniProt Q969F8); assay: NFAT-regulated luciferase reporter gene assay in CHO-k1 cells, agonist activity; type: cell-based
# T1 construct: expressed in transfected cells; host or cells: CHO-k1 cells that also express mitochondrially targeted aequorin, Gα16 and an NFAT-luciferase reporter
# T1 sequence (Q969F8 whole entry): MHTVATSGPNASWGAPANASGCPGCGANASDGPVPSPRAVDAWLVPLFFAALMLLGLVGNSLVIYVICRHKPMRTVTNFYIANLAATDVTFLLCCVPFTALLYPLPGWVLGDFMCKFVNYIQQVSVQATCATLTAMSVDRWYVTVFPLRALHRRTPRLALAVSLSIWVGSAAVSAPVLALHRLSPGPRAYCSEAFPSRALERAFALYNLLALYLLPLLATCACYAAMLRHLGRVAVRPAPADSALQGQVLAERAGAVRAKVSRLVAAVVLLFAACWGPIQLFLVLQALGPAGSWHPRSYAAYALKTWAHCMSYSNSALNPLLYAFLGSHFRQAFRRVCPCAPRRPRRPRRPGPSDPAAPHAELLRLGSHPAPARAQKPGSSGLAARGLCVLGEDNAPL
# Method: CHO-k1 cells were used that expressed the mitochondrially targeted aequorine and Gα16 (from Euroscreen, Brussels, Belgium), a Nuclear Factor of Activated T-cells-responsive element (NFAT) under the control of a promoter directing the expression of a firefly luciferase reporter gene (pNFAT-TALuc obtained from Clontech, Mountain View, Calif.), and the human GPR54-R Hygro(+)-hGPR54WT c4; MSD). These cells were cultured in Dulbecco's Modified Eagle Medium: Nutrient Mixture F-12 (DMEM/F12) (Invitrogen, Carlsbad, Calif.), supplemented with 10% (vol/vol) filtered bovine serum (Hyclone, Thermo Fisher Scientific, Waltham, Mass.), 100 U/ml penicillin G, 100 μg/ml streptomycin, 400 μg/ml Geneticin and 400 μg/ml Hygromycin (Invitrogen). […] Kisspeptin-10 was used as a standard. […] When the conjugates were tested in the presence of a final percentage of 20% human serum, 10 μl assay medium containing 60% human serum (Sigma-Aldrich, #H4522) was added to the wells. In the absence of human serum, 10 μl of assay medium was added. Cells were harvested and diluted to a concentration of 7.5E5 cells/ml in assay medium without 0.1% BSA. 10 μl of cell solution was added to the compound wells. After incubation for 4 hours in a humidified atmosphere at 5% CO2 and 37° C., the plate was left at room temperature for 30 minutes. Subsequently, 15 μl of Steadylite™ solution (PerkinElmer, Boston, Mass.) was added and the cells, protected from light, were allowed to lyse for 30 min at room temperature. Luminescence, indicated as relative luminescence units (RLU), was measured on an Envision Multilabel reader (PerkinElmer).
# [2] = absence of human serum, read-out: pEC50 (converted)
# [3] = presence of 20% human serum, read-out: pEC50 serum (converted)
smiles,measurement,setting,value
CNC(=N)NCCC[C@H](NC(=O)[C@H](CC(C)C)NC(=O)NNC(=O)[C@H](Cc1ccccc1)NC(=O)[C@@H](NC(=O)[C@H](CC(N)=O)NC(=O)[C@H](Cc1c[nH]c2ccccc12)NC(=O)[C@H](CC(N)=O)NC(=O)[C@@H](Cc1ccc(O)cc1)NC(=O)CCOCCOCCOCCOCCn1cc(CCC(=O)NCCOCCOCCOCCO[C@H]2[C@H](OC)[C@@H](OC)[C@@H](O[C@H]3[C@H](OC)[C@@H](OC)[C@H](O[C@H]4[C@H](OS(=O)(=O)O)[C@@H](OS(=O)(=O)O)[C@@H](O[C@H]5[C@H](OC)[C@@H](OC)[C@H](O[C@H]6[C@H](OS(=O)(=O)O)[C@@H](OS(=O)(=O)O)[C@@H](OC)O[C@@H]6COS(=O)(=O)O)O[C@H]5C(=O)O)O[C@@H]4COS(=O)(=O)O)O[C@@H]3C(=O)O)O[C@@H]2COS(=O)(=O)O)nn1)C(C)O)C(=O)N[C@@H](Cc1ccccc1)C(N)=O (some centres unmarked) [Conjugate C11],half-life at 750 nM,[1],> 240 h
CNC(=N)NCCC[C@H](NC(=O)[C@H](CC(C)C)n1cc(CNC(=O)[C@H](Cc2ccccc2)NC(=O)[C@@H](NC(=O)[C@H](CC(N)=O)NC(=O)[C@H](Cc2c[nH]c3ccccc23)NC(=O)[C@H](CC(N)=O)NC(=O)[C@@H](Cc2ccc(O)cc2)NC(=O)CCCCn2cc(CCC(=O)NCCOCCOCCOCCO[C@H]3[C@H](OC)[C@@H](OC)[C@@H](O[C@H]4[C@H](OC)[C@@H](OC)[C@H](O[C@H]5[C@H](OS(=O)(=O)O)[C@@H](OS(=O)(=O)O)[C@@H](O[C@H]6[C@H](OC)[C@@H](OC)[C@H](O[C@H]7[C@H](OC)[C@@H](OS(=O)(=O)O)[C@@H](OC)O[C@@H]7COS(=O)(=O)O)O[C@H]6C(=O)O)O[C@@H]5COS(=O)(=O)O)O[C@@H]4C(=O)O)O[C@@H]3COS(=O)(=O)O)nn2)[C@@H](C)O)nn1)C(=O)N[C@@H](Cc1ccccc1)C(N)=O [Conjugate C18],half-life at 750 nM,[1],233 h
CNC(=N)NCCC[C@H](NC(=O)[C@H](CC(C)C)n1cc(CNC(=O)[C@H](Cc2ccccc2)NC(=O)[C@@H](NC(=O)[C@H](CC(N)=O)NC(=O)[C@H](Cc2c[nH]c3ccccc23)NC(=O)[C@H](CC(N)=O)NC(=O)[C@@H](Cc2ccc(O)cc2)NC(=O)CCOCCOCCOCCOCCn2cc(CCC(=O)NCCOCCOCCOCCO[C@H]3[C@H](OC)[C@@H](OC)[C@@H](O[C@H]4[C@H](OC)[C@@H](OC)[C@H](O[C@H]5[C@H](OS(=O)(=O)O)[C@@H](OS(=O)(=O)O)[C@@H](O[C@H]6[C@H](OC)[C@@H](OC)[C@H](O[C@H]7[C@H](OC)[C@@H](OS(=O)(=O)O)[C@@H](OC)O[C@@H]7COS(=O)(=O)O)O[C@H]6C(=O)O)O[C@@H]5COS(=O)(=O)O)O[C@@H]4C(=O)O)O[C@@H]3COS(=O)(=O)O)nn2)[C@@H](C)O)nn1)C(=O)N[C@@H](Cc1ccccc1)C(N)=O [Conjugate C19],half-life at 750 nM,[1],175 h
CNC(=N)NCCC[C@H](NC(=O)[C@H](CC(C)C)n1cc(CNC(=O)[C@H](Cc2ccccc2)NC(=O)[C@@H](NC(=O)[C@H](CC(N)=O)NC(=O)[C@H](Cc2c[nH]c3ccccc23)NC(=O)[C@H](CC(N)=O)NC(=O)[C@@H](Cc2ccc(O)cc2)NC(=O)CCOCCOCCOCCOCCn2cc(CCC(=O)NCCOCCOCCOCCO[C@H]3[C@H](OC)[C@@H](OC)[C@@H](O[C@H]4[C@H](OC)[C@@H](OC)[C@H](O[C@H]5[C@H](OS(=O)(=O)O)[C@@H](OS(=O)(=O)O)[C@@H](O[C@H]6[C@H](OC)[C@@H](OC)[C@H](O[C@H]7[C@H](OS(=O)(=O)O)[C@@H](OS(=O)(=O)O)[C@@H](OC)O[C@@H]7COS(=O)(=O)O)O[C@H]6C(=O)O)O[C@@H]5COS(=O)(=O)O)O[C@@H]4C(=O)O)O[C@@H]3COS(=O)(=O)O)nn2)[C@@H](C)O)nn1)C(=O)N[C@@H](Cc1ccccc1)C(N)=O [Conjugate C20],half-life at 750 nM,[1],> 240 h
CNC(=N)NCCC[C@H](NC(=O)[C@H](CC(C)C)NC(=O)NNC(=O)[C@H](Cc1ccccc1)NC(=O)[C@@H](NC(=O)[C@H](CC(N)=O)NC(=O)[C@H](Cc1c[nH]c2ccccc12)NC(=O)[C@H](CC(N)=O)NC(=O)[C@H](Cc1ccc(O)cc1)NC(=O)CCCCn1cc(CCC(=O)NCCOCCOCCOCCO[C@H]2[C@H](OC)[C@@H](OC)[C@@H](O[C@H]3[C@H](OC)[C@@H](OC)[C@H](O[C@H]4[C@H](OS(=O)(=O)O)[C@@H](OS(=O)(=O)O)[C@@H](O[C@H]5[C@H](OC)[C@@H](OC)[C@H](O[C@H]6[C@H](OS(=O)(=O)O)[C@@H](OS(=O)(=O)O)[C@@H](OC)O[C@@H]6COS(=O)(=O)O)O[C@H]5C(=O)O)O[C@@H]4COS(=O)(=O)O)O[C@@H]3C(=O)O)O[C@@H]2COS(=O)(=O)O)nn1)[C@@H](C)O)C(=O)N[C@@H](Cc1ccccc1)C(N)=O [Conjugate C22],half-life at 750 nM,[1],> 240 h
CO[C@H]1O[C@H](COS(=O)(=O)O)[C@@H](O[C@@H]2O[C@@H](C(=O)O)[C@@H](O[C@H]3O[C@H](COS(=O)(=O)O)[C@@H](O[C@@H]4O[C@H](C(=O)O)[C@@H](O[C@H]5O[C@H](COS(=O)(=O)O)[C@@H](OCCOCCOCCOCCNC(=O)CCc6cn(CCCCC(=O)N[C@H](Cc7ccc(O)cc7)C(=O)N7C[C@H](O)C[C@H]7C(=O)N[C@@H](CC(N)=O)C(=O)N[C@H](C(=O)N[C@@H](Cc7ccccc7)C(=O)NCC(=O)N[C@@H](CC(C)C)C(=O)N[C@@H](CCCNC(=N)N)C(=O)N[C@@H](Cc7c[nH]c8ccccc78)C(N)=O)[C@@H](C)O)nn6)[C@H](OC)[C@H]5OC)[C@H](OC)[C@H]4OC)[C@H](OS(=O)(=O)O)[C@H]3OS(=O)(=O)O)[C@H](OC)[C@H]2OC)[C@H](OC)[C@H]1OS(=O)(=O)O [Conjugate C38],EC50,human KISS-receptor; [2],0.0427 nM
same,EC50,human KISS-receptor; [3],0.316 nM
CO[C@H]1O[C@H](COS(=O)(=O)O)[C@@H](O[C@@H]2O[C@@H](C(=O)O)[C@@H](O[C@H]3O[C@H](COS(=O)(=O)O)[C@@H](O[C@@H]4O[C@H](C(=O)O)[C@@H](O[C@H]5O[C@H](COS(=O)(=O)O)[C@@H](OCCOCCOCCOCCNC(=O)CCc6cn(CCCCC(=O)N[C@H](Cc7ccc(O)cc7)C(=O)N7C[C@H](O)C[C@H]7C(=O)N[C@@H](CC(N)=O)C(=O)N[C@H](C(=O)N[C@@H](Cc7ccccc7)C(=O)NCC(=O)N[C@@H](CC(C)C)C(=O)N[C@@H](CCCNC(=N)N)C(=O)N[C@@H](Cc7c[nH]c8ccccc78)C(N)=O)[C@@H](C)O)nn6)[C@H](OC)[C@H]5OC)[C@H](OC)[C@H]4OC)[C@H](OS(=O)(=O)O)[C@H]3OS(=O)(=O)O)[C@H](OC)[C@H]2OC)[C@H](OS(=O)(=O)O)[C@H]1OS(=O)(=O)O [Conjugate C39],EC50,human KISS-receptor; [2],0.0646 nM
same,EC50,human KISS-receptor; [3],2.69 nM
CO[C@H]1O[C@H](COS(=O)(=O)O)[C@@H](O[C@@H]2O[C@@H](C(=O)O)[C@@H](O[C@H]3O[C@H](COS(=O)(=O)O)[C@@H](O[C@@H]4O[C@H](C(=O)O)[C@@H](O[C@H]5O[C@H](COS(=O)(=O)O)[C@@H](OCCOCCOCCOCCNC(=O)CCc6cn(CCOCCOCCOCCOCCC(=O)N[C@@H](Cc7ccc(O)cc7)C(=O)N7C[C@H](O)C[C@H]7C(=O)N[C@@H](CC(N)=O)C(=O)N[C@H](C(=O)N[C@@H](Cc7ccccc7)C(=O)NNC(=O)N[C@@H](CC(C)C)C(=O)N[C@@H](CCCNC(=N)N)C(=O)N[C@@H](Cc7c[nH]c8ccccc78)C(N)=O)[C@@H](C)O)nn6)[C@H](OC)[C@H]5OC)[C@H](OC)[C@H]4OC)[C@H](OS(=O)(=O)O)[C@H]3OS(=O)(=O)O)[C@H](OC)[C@H]2OC)[C@H](OC)[C@H]1OS(=O)(=O)O [Conjugate C40],EC50,"human KISS-receptor; pEC50, absence of human serum",0.347 nM
same,EC50,"human KISS-receptor; pEC50 serum, presence of 20% human serum",1.66 nM
